This note sets out measurements from patent publication US20210290648A1, “Potentiation of B-Lactam Antibiotics and B-Lactam/B-Lactamase Inhibitor Combinations Against Multidrug and Extensively Drug-Resistant Pseudomonas Aeruginosa Using Non-Ribosomal Tobramycin-Cyclam Conjugates” (University of Manitoba, priority 2018, published 2021).

One data set has as its system E. faecium ATCC 27270. In words: MIC, microbroth dilution. The class given is cell-based. As to the method: (§1) Antimicrobial Susceptibility Assay. The in vitro antimicrobial activity of all compounds/antibiotics against a panel of bacteria was evaluated by microbroth dilution method in accordance with the Clinical and Laboratory Standards Institute (CLSI) guidelines. Overnight grown bacterial cultures were diluted in saline to achieve a 0.5 McFarland turbidity, followed by 1:50 dilution in Mueller-Hinton broth (MHB) for inoculation to a final concentration of approximately 5×10^5CFU/mL. The antimicrobial agents were 2-fold serially diluted in MHB in a 96-well plate and incubated at 37° C. with equal volumes of inoculum for 18 h. The lowest concentration that prevented the visible growth of bacteria was defined as the MIC for each antimicrobial agent. The broth with or without bacterial cells was used as positive or negative control, respectively.

Data set [1] relates to E. coli CAN-ICU 63074 (AMK 32). In words: MIC, microbroth dilution. The data set is classed as cell-based. The settings on record: standalone. As to the method:
as §1

Data set [2] concerns E. coli CAN-ICU 61714 (GEN-R). In words: MIC, microbroth dilution. The data set is classed as cell-based. The note with it: standalone. As to the method: as §1
The subject of data set [3] is MRSE CAN-ICU 61589 (CAZ >32). In words: MIC, microbroth dilution. The data set is classed as cell-based. The note with it: standalone. As to the method:
as §1

The test system of data set [4] is S. maltophilia CAN-ICU 62584. In words: MIC, microbroth dilution. The class given is cell-based. As to the method:
as §1

The next data set has as its system E. coli ATCC 25922. In words: MIC, microbroth dilution. The data set is classed as cell-based. As to the method:
as §1

In data set [5] the test system is E. coli CANWARD-2011 97615 (GEN-R, TOB-R, CIP-R) aac(3′)iia. In words: MIC, microbroth dilution. The class given is cell-based. As to the method: as §1
The subject of the next data set is E. faecalis ATCC 29212. In words: MIC, microbroth dilution. The class given is cell-based. As to the method:
as §1

Another data set has as its system S. pneumoniae ATCC 49619. In words: MIC, microbroth dilution. The class given is cell-based. As to the method:
as §1

The next data set has as its system MSSE CANWARD-2008 81388. In words: MIC, microbroth dilution. The class given is cell-based. The settings on record: standalone. As to the method:
as §1

Data set [6] relates to A. baumannii CAN-ICU 63169. In words: MIC, microbroth dilution. The data set is classed as cell-based. As to the method: as §1
The test system of the next data set is S. aureus ATCC 29213. In words: MIC, microbroth dilution. The data set is classed as cell-based. As to the method: as §1
In the next data set the test system is MRSA ATCC 33592. In words: MIC, microbroth dilution. The note with it: standalone. The data set is classed as cell-based. As to the method:
as §1

For data set [7], the system named is MDR/XDR P. aeruginosa clinical isolates. In words: MIC and checkerboard, panel of clinical isolates. The data set is classed as cell-based, Pseudomonas aeruginosa.
A further data set concerns K. pneumoniae ATCC 13883. In words: MIC, microbroth dilution. The class given is cell-based, Klebsiella pneumoniae. As to the method:
as §1

For data set [8], the system named is P. aeruginosa CAN-ICU 62308 (GEN-R). In words: MIC, microbroth dilution. The class given is cell-based, Pseudomonas aeruginosa. The settings on record: standalone. As to the method: as §1
In data set [9] the test system is P. aeruginosa CANWARD-2011 96846 (GEN-R, TOB-R). In words: MIC, microbroth dilution. The class given is cell-based, Pseudomonas aeruginosa. The settings on record: standalone. As to the method: as §1
For the next data set, the system named is P. aeruginosa ATCC 27853. In words: MIC, microbroth dilution. The data set is classed as cell-based, Pseudomonas aeruginosa. As to the method: as §1
The next data set deals with WT P. aeruginosa PAO1. In words: Checkerboard combination study / MIC. The class given is cell-based, Pseudomonas aeruginosa.
Data set [10] has as its system panel of Gram-positive and Gram-negative bacteria. In words: MIC, panel of Gram-positive and Gram-negative bacteria. The data set is classed as cell-based. The settings on record: standalone; susceptible strains of the panel; read-out: MIC values against susceptible strains. As to the method:
as §1

For data set [11], the system named is human liver carcinoma (HepG2) cells. In words: Cytotoxicity, PrestoBlue cell viability assay. The data set is classed as cell-based. The settings on record: at about 12 μM (6.5 μg/mL), positive control. As to the method: Cytotoxicity Assay. Human embryonic kidney cells (HEK293) and HepG2 cells were grown in Dulbecco's modified eagle's medium supplemented with 10% fetal bovine serum in a humidified […] incubator at 37° C. Equal number of cells (100 μl of media containing ˜8000 cells) were dispersed into 96-well plates and wells with medium but no cells were used as blanks. After incubating for 24 h, […] varying concentrations of test compounds (at twice the desired concentrations) were added to each well, including the blanks. The treated cells were then incubated further for 48 h, after which PrestoBlue reagent was added to each well. The plates were then incubated for an additional hour on a nutator mixer in a 5% CO2 incubator. The fluorescence was read at […] on a SpectraMax M2 plate reader (Molecular Devices, USA). Cell viability were interpreted as previously described (55, 77). The values of blank were subtracted from each value, and the viability values of the treated samples relative to the controls with vehicle were calculated. The values for the plots are the means±standard deviation.

Data set [12] deals with human embryo kidney (HEK293) cells. In words: Cytotoxicity, PrestoBlue cell viability assay. The data set is classed as cell-based. The settings on record: at about 12 μM (6.5 μg/mL), positive control. As to the method:
Cytotoxicity Assay. Human embryonic kidney cells (HEK293) and HepG2 cells were grown in Dulbecco's modified eagle's medium supplemented with 10% fetal bovine serum in a humidified 5% atmospheric incubator at 37° C. […] The fluorescence was read at […] on a SpectraMax M2 plate reader (Molecular Devices, USA). […] The values of blank were subtracted from each value, and the viability values of the treated samples relative to the controls with vehicle were calculated. The values for the plots are the means±standard deviation.

Where [13] appears, read: Escherichia coli, read-out: MIC.
The mark [14] stands for this setting: Pseudomonas aeruginosa, read-out: MIC.

Converted amounts (≈) assume the structure as drawn. Read-outs that look alike come from different tables or passages of the source. A value given as a limit tells only on which side of the number the result lay.

Take `NC[C@H]1O[C@H](O[C@H]2[C@H](O)[C@@H](O[C@H]3O[C@H](CO)[C@@H](O)[C@H](N)[C@H]3O)[C@H](N)C[C@@H]2N)[C@H](N)C[C@@H]1O` [Tobramycin]: the MIC in the data set on E. faecium ATCC 27270 (Enterococcus faecium, ATCC27270, standalone, read-out: MIC) is 16 µg/mL (≈ 34.2 µM); in data set [1] (setting [13]), 8 µg/mL (≈ 17.1 µM); in [2] (setting [13]), 8 µg/mL (≈ 17.1 µM); in [3] (Staphylococcus epidermidis, read-out: MIC), 2 µg/mL (≈ 4.28 µM); in [4] (Stenotrophomonas maltophilia, CANICU62584, standalone, read-out: MIC) it was above 512 µg/mL; in the data set on E. coli ATCC 25922 (Escherichia coli, ATCC25922, standalone, read-out: MIC), 0.5 µg/mL (≈ 1.07 µM). Also, the minimum inhibitory concentration (MIC) in [5] (Escherichia coli) was 128 µg/mL (≈ 274 µM); with E. faecalis ATCC 29212 (Enterococcus faecalis, ATCC29212, standalone, read-out: MIC), 8 µg/mL (≈ 17.1 µM); in the data set with S. pneumoniae ATCC 49619 (Streptococcus pneumoniae, ATCC49619, standalone, read-out: MIC), 2 µg/mL (≈ 4.28 µM); in the data set on MSSE CANWARD-2008 81388 (read-out: MIC) it was at most 0.25 µg/mL; in data set [6] (Acinetobacter baumannii, CANICU63169, standalone, read-out: MIC) it was 32 µg/mL (≈ 68.4 µM); with S. aureus ATCC 29213 (Staphylococcus aureus, ATCC29213, standalone, read-out: MIC), 0.5 µg/mL (≈ 1.07 µM). The minimum inhibitory concentration (MIC) with MRSA ATCC 33592 (Staphylococcus aureus, read-out: MIC) was 0.5 µg/mL (≈ 1.07 µM); with K. pneumoniae ATCC 13883 (Klebsiella pneumoniae, ATCC13883, standalone, read-out: MIC), at most 0.25 µg/mL; in data set [8] (setting [14]) it was 16 µg/mL (≈ 34.2 µM); in [9] (setting [14]), 256 µg/mL (≈ 548 µM); in the data set with P. aeruginosa ATCC 27853 (Pseudomonas aeruginosa, ATCC27853, standalone, read-out: MIC), 1 µg/mL (≈ 2.14 µM); in the data set on WT P. aeruginosa PAO1 (Pseudomonas aeruginosa, PAO1, 18 h, antibiotic alone, WT PAO1 (Table 2), read-out: MIC alone), 1 µg/mL. Also, the MIC in data set [10] was at most 2 µg/mL. Further, the “FICI with aztreonam or meropenem” value in [7] (tobramycin-resistant MDR/XDR isolates) is reported as 0.56-0.75; in data set [7] (tobramycin-susceptible MDR), 0.75; with WT P. aeruginosa PAO1 (tobramycin + aztreonam or meropenem, WT) it was 0.75-1.00. The “FICI in the presence of ≤10 μM of 1” value in the data set with WT P. aeruginosa PAO1 (antibiotic + compound 1, WT PAO1) was 1.01. The “MIC of Antibiotics in the presence of ≤10 μM of 1” value in the data set with WT P. aeruginosa PAO1 (antibiotic + compound 1 ≤10 μM, WT PAO1) stood at 1 µg/mL. Moreover, the “FICI in the presence of ≤10 μM of 2” value in the data set on WT P. aeruginosa PAO1 (antibiotic + compound 2, WT PAO1) worked out at 1.00. Also, in the data set with WT P. aeruginosa PAO1 (antibiotic + compound 2 ≤10 μM, WT PAO1), the “MIC of Antibiotics in the presence of ≤10 μM of 2” value was found to be 1 µg/mL. The “FICI in the presence of ≤10 μM of 3” value with WT P. aeruginosa PAO1 (antibiotic + compound 3, WT PAO1) came out at 1.01. For the same molecule, the “MIC of Antibiotics in the presence of ≤10 μM of 3” value in the data set with WT P. aeruginosa PAO1 (antibiotic + compound 3 ≤10 μM, WT PAO1) was 1 µg/mL. In addition, in the data set with WT P. aeruginosa PAO1 (antibiotic + compounds 1-3 at ≤10 μM (≤16 μg/mL), WT PAO1), the “FICI with compounds 1-3” value was 1.

`NCC1OC(OC2C(N)CC(N)C(OC3OC(CO)C(O)C(N)C3O)C2OCCCCN2CCCNCCNCCCNCC2)C(N)CC1O.O=C(O)C(F)(F)F.O=C(O)C(F)(F)F.O=C(O)C(F)(F)F.O=C(O)C(F)(F)F.O=C(O)C(F)(F)F.O=C(O)C(F)(F)F.O=C(O)C(F)(F)F.O=C(O)C(F)(F)F.O=C(O)C(F)(F)F` (stereo not drawn) [Compound 1, 5-O-(Butylcyclam)-tobramycin.9TFA]: the MIC in the data set on E. faecium ATCC 27270 (standalone) was above 128 µg/mL; in data set [1], above 128 µg/mL; in data set [2], 128 µg/mL; in data set [3], 64 µg/mL; in [4] (standalone), above 128 µg/mL; in the data set on E. coli ATCC 25922 (standalone), 64 µg/mL. The MIC in data set [5] (standalone, E. coli CANWARD-2011 97615 (GEN-R, TOB-R, CIP-R)) was above 128 µg/mL; against E. faecalis ATCC 29212 (standalone), above 128 µg/mL; against S. pneumoniae ATCC 49619 (standalone) it was above 128 µg/mL; against MSSE CANWARD-2008 81388 it was 16 µg/mL; in data set [6] (standalone), above 128 µg/mL; in the data set on S. aureus ATCC 29213 (standalone), 64 µg/mL. Further, the MIC against MRSA ATCC 33592 was 64 µg/mL; with K. pneumoniae ATCC 13883 (standalone) it was 32 µg/mL; in data set [8], above 128 µg/mL; in data set [9], above 128 µg/mL; against P. aeruginosa ATCC 27853 (standalone) it was above 128 µg/mL.

In the case of `COc1cccc2c1C(=O)c1c(O)c3c(c(O)c1C2=O)C[C@@](O)(C(=O)CO)C[C@@H]3O[C@H]1C[C@H](N)[C@H](O)[C@H](C)O1` [Doxorubicin], the cell viability entry in [11] is “less than 10%”. For the same molecule, in data set [12], the “cytotoxicity of cells reduced to” value is “less than 10%”.
